Consider seven compounds from patent US7022695B2, “Thioether-substituted benzamides as inhibitors of Factor Xa” (Millennium Pharmaceuticals, Inc., priority 2003, dated 2006).

Each structure is given as a SMILES string.

T1 sequence (P00742 235-488 limits assumed): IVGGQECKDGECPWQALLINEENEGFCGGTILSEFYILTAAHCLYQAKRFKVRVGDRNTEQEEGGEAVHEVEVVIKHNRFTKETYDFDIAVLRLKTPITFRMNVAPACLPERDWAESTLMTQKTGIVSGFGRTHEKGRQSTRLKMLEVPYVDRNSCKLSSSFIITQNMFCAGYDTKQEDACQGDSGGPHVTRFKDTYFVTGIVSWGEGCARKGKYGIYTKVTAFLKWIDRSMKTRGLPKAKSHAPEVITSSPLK
T1 sequence (P00742 41-179 partner limits assumed): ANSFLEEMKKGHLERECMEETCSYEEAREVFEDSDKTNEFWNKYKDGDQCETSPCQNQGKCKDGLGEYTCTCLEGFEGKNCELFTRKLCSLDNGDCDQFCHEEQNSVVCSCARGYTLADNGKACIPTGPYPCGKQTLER

The test addresses T1, human plasma protein factor Xa (Homo sapiens, UniProt P00742).
T1 construct: The human plasma protein factor Xa was purchased from Haematologic Technologies; purchased Haematologic Technologies (Essex Junction, Vt.); host or cells: human plasma
Description: Factor Xa Ki determination (cleavage of chromogenic substrate S-2765). As to conditions: fXa 1 nM, S-2765 200 μM, pH 7.4. The test is classed as biochemical. As for the experimental part: Protocol for Assay of Factor Xa Inhibitors
The substrate S-2765 (Z-D-Arg-Gly-Arg-pNA.HCl) was obtained from Diapharma (West Chester, Ohio).
The human plasma protein factor Xa was purchased from Haematologic Technologies (Essex Junction, Vt.).
The assay buffer for this series of assays was: Hepes buffered saline (20 mM Hepes, 150 mM NaCl, 5 mM CaCl2, 0.1% PEG-8000, pH 7.4). In a 96-well microtiter plate, inhibitor was serially diluted in a duplicate set of wells to give a range of final concentrations from 5 pM to 3 μM final. Controls without inhibitor (8 wells) were included. The enzyme, fXa (1 nM final) was added to the wells. The substrate S-2765 (200 μM final) was added and the degree of substrate hydrolysis was measured at 405 nm on a Thermomax plate reader for 5 minutes, using Softmax software. Initial velocities (mOD/min) were analyzed by non-linear least squares regression in the Plate Ki software (BioKin Ltd, Pullman, Wash.)(Literature reference: Kusmic P, et al., “High-throughput screening of enzyme inhibitors: Automatic determination of tight-binding inhibition constants” Anal. Biochemistry 2000, 281:62–67). The model used for fitting the inhibitor dose-response curves was the Morrison equation. An apparent Ki (Ki*) was determined. The overall Ki was calculated using the following equation: […]
In general, Ki refers to the dissociation constant of the complex between target and ligand, obtained from inhibition or displacement. The low end stands for higher affinity, the high end for lower affinity. For `CN1CCN=C1c1ccc(C(=O)Nc2ccc(SCC(N)=O)cc2C(=O)Nc2ccc(Cl)cn2)cc1` [Example 6], the Ki is < 0.01 µM.

On to `CN(C)CCSc1ccc(NC(=O)c2ccc(C(=N)N(C)C)cc2)c(C(=O)Nc2ccc(Cl)cn2)c1` [Example 9], for which the Ki is < 0.01 µM.

`CN(C)C(=N)c1ccc(C(=O)Nc2ccc(SCC(=O)N(C)C)cc2C(=O)Nc2ccc(Cl)cn2)cc1` [Example 1, N-(5-chloro-2-pyridinyl)-2-(4-N,N-dimethylamidinophenylcarbonyl)amino-5-acetic acid dimethylamide sulfanyl-phenylcarboxamide]: the Ki is < 0.01 µM.

With `CN(C)C(=N)c1ccc(C(=O)Nc2ccc(SCC(=O)N3CCN(C(=O)OC(C)(C)C)CC3)cc2C(=O)Nc2ccc(Cl)cn2)cc1` [Example 3], the Ki was < 0.01 µM.

For `CNC(=O)CSc1ccc(NC(=O)c2ccc(C3=NCCN3C)cc2)c(C(=O)Nc2ccc(Cl)cn2)c1` [Example 7], the Ki is < 0.01 µM.

Consider `CN(C)C(=N)c1ccc(C(=O)Nc2ccc(SCC(=O)N3CCCCC3)cc2C(=O)Nc2ccc(Cl)cn2)cc1` [Example 2], for which the Ki was < 0.01 µM.

As to `CN(C)C(=O)CSc1ccc(NC(=O)c2ccc(C3=NCCN3C)cc2)c(C(=O)Nc2ccc(Cl)cn2)c1` [Example 4], the Ki is < 0.01 µM.
